# According to ChEMBL document CHEMBL1122687, “Sulfur analogues of psychotomimetic agents. 3. Ethyl homologues of mescaline and their monothio analogues” (1984):
# Species: Homo sapiens
# Experiment: Psychotomimetic potency of compound relative to that of mescaline (Human potency of mescaline = 1 MU)
# Format: functional
row,Compound,Relative activity
1,CCOc1cc(CCN)cc(OC)c1OCC,1.5
2,CCSc1c(OC)cc(CCN)cc1OC,20
3,CCOc1cc(CCN)cc(OCC)c1SCC,<1
4,CCOc1cc(CCN)cc(OCC)c1OC,<1
5,CCCOc1c(OC)cc(CCN)cc1OC,10
6,CCOc1cc(CCN)cc(SCC)c1OCC,<1
7,CCOc1c(OC)cc(CCN)cc1OC,6
8,CCOc1c(OC)cc(CCN)cc1SC,6
9,CCOc1cc(CCN)cc(SC)c1OCC,2
10,CCOc1cc(CCN)cc(SC)c1OC,<1
11,CCOc1cc(CCN)cc(OCC)c1SC,<1
12,CCOc1cc(CCN)cc(OC)c1OC,1
13,CCCOc1cc(CCN)cc(OC)c1OC,<1
14,CCOc1cc(CCN)cc(OC)c1SC,4
15,CCCSc1c(OC)cc(CCN)cc1OC,16
16,CCOc1c(OC)cc(CCN)cc1SCC,2
17,CCOc1cc(CCN)cc(OC)c1SCC,4
18,CCOc1cc(CCN)cc(SCC)c1OC,<1
19,CCCCOc1c(OC)cc(CCN)cc1OC,2
20,CCOc1cc(CCN)cc(OCC)c1OCC,<1
21,CCSc1cc(CCN)cc(OC)c1OC,6
22,COc1cc(CCN)cc(OC)c1SC,12
23,CCCCSc1c(OC)cc(CCN)cc1OC,3

# Species: Homo sapiens
# Experiment: Psychotomimetic potency of compound relative to that of mescaline(Human potency of mescaline = 1 MU)
# Format: functional
row,Compound,Relative activity
1,COc1cc(CCN)cc(SC)c1OC,6
2,COc1cc(CCN)cc(OC)c1OC [MESCALINE],1
